Where two headings read alike, the source gives them in different places.
Assays:
Type in all cases: in vivo
[1] = test system: barnyardgrass (Echinochloa crus-galli); assay: Test B pre-/postemergence plant response; details: Echinochloa crus-galli, 240 h, read-out: Plant response rating, Barnyardgrass; for pest or weed control at 125 g/ha: 125 g ai/ha; for pest or weed control at 500 g/ha: 500 g ai/ha
Outline: (§1)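 Seeds in loam–sand blend given preemergence soil spray; separately, plants at one- to two-leaf stage (2–10 cm) sprayed postemergence, compounds in non-phytotoxic solvent with surfactant. Injury rated visually versus untreated controls after ~10 days in greenhouse, 0 (no effect) to 100 (complete control).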

corn (Zea mays) [2] = assay: Test B pre-/postemergence plant response; details: Zea mays, post-emergence, 240 h
Outline: as §1

[3] = test system: giant foxtail (Setaria faberii); assay: Test B pre-/postemergence plant response; details: Setaria faberi, 240 h, read-out: Plant response rating, Foxtail, Giant; for pest or weed control at 125 g/ha: 125 g ai/ha; for pest or weed control at 500 g/ha: 500 g ai/ha
Outline: as §1

[4] = test system: pigweed (Amaranthus retroflexus); assay: Test B pre-/postemergence plant response; details: Amaranthus retroflexus, 240 h, read-out: Plant response rating, Pigweed; for pest or weed control at 125 g/ha: 125 g ai/ha; for pest or weed control at 500 g/ha: 500 g ai/ha
Outline: as §1

[5] = test system: wheat (Triticum aestivum); assay: Test B pre-/postemergence plant response; details: Triticum aestivum, post-emergence, 240 h, read-out: Plant response rating, Wheat
Outline: as §1

[6] = test system: Italian ryegrass (Lolium multiflorum); assay: Test D pre-/postemergence plant response; details: Lolium multiflorum; for pest or weed control at 16 g/ha: 16 g ai/ha; for pest or weed control at 31 g/ha: 31 g ai/ha; for pest or weed control at 62 g/ha: 62 g ai/ha; for pest or weed control at 125 g/ha: 125 g ai/ha
Excerpt: (§2) Seeds of plant species selected from blackgrass (Alopecurus myosuroides), Italian ryegrass (Lolium multiflorum), winter wheat (Triticum aestivum), galium (catchweed bedstraw, Galium aparine), corn (Zea mays), large (Lg) crabgrass (Digitaria sanguinalis), giant foxtail (Setaria faberii), johnsongrass (Sorghum halepense), lambsquarters (Chenopodium album), morningglory (Ipomoea coccinea), yellow nutsedge (Cyperus esculentus), pigweed (Amaranthus retroflexus), ragweed (common ragweed, Ambrosia elatior), soybean (Glycine max), bamyardgrass (Echinochloa crus-galli), oilseed rape (Brassica napus), waterhemp (common waterhemp, Amaranthus rudis), and velvetleaf (Abutilon theophrasti) were planted into a blend of loam soil and sand and treated preemergence with test chemicals formulated in a non-phytotoxic solvent mixture which included a surfactant. At the same time, plants selected from these crop and weed species and also kochia (Kochia scoparia), wild oat (Avena fatua), and chickweed (common chickweed, Stellaria media) were planted in pots containing Redi-Earth® planting medium (Scotts Company, 14111 Scottslawn Road, Marysville, Ohio 43041) comprising spaghnum peat moss, vermiculite, wetting agent and starter nutrients and treated with postemergence applications of test chemicals formulated in the same manner. Plants ranged in height from 2 to 18 cm (1- to 4-leaf stage) for postemergence treatments. Treated plants and controls were maintained in a greenhouse for 13 to 15 days, after which time all species were compared to controls and visually evaluated. Plant response ratings, summarized in Table D, are based on a scale of 0 to 100 where 0 is no effect and 100 is complete control. A dash (-) response means no test result.

corn (Zea mays) [7] = assay: Test D pre-/postemergence plant response; details: Zea mays; for Corn plant response rating (crop injury, 0 = no effect, 100 = complete kill) at 62 g/ha: 62 g ai/ha
Excerpt: as §2

[8] = test system: galium (catchweed bedstraw, Galium aparine); assay: Test D pre-/postemergence plant response; details: Galium; for pest or weed control at 16 g/ha: 16 g ai/ha; for pest or weed control at 31 g/ha: 31 g ai/ha; for pest or weed control at 62 g/ha: 62 g ai/ha; for pest or weed control at 125 g/ha: 125 g ai/ha
Excerpt: as §2

[9] = test system: lambsquarters (Chenopodium album); assay: Test D pre-/postemergence plant response; details: Chenopodium album; for pest or weed control at 16 g/ha: 16 g ai/ha; for pest or weed control at 31 g/ha: 31 g ai/ha; for pest or weed control at 62 g/ha: 62 g ai/ha; for pest or weed control at 125 g/ha: 125 g ai/ha
Excerpt: as §2

[10] = test system: large (Lg) crabgrass (Digitaria sanguinalis); assay: Test D pre-/postemergence plant response; details: Digitaria sanguinalis, post-emergence, Postemergence, scale 0 to 100 (0 no effect, 100 complete control), read-out: Crabgrass, Large plant response rating
Excerpt: as §2

[11] = post-emergence, postemergence, 0 to 100 scale, 0 no effect, 100 complete control
[12] = post-emergence, Postemergence, 0 to 100 scale (0 no effect, 100 complete control)
[13] = pre-emergence, Preemergence, 0 to 100 scale where 0 is no effect and 100 is complete control
[14] = 125 g ai/ha, postemergence, 0 to 100 scale, 0 no effect, 100 complete control
[15] = Postemergence, 500 g ai/ha, 0 to 100 scale (0 no effect, 100 complete control)
[16] = post-emergence, Postemergence, scale 0 to 100 (0 no effect, 100 complete control), read-out: Ryegrass, Italian plant response rating
[17] = post-emergence, Postemergence, scale 0 to 100, 0 no effect, 100 complete control, read-out: Plant response rating, Ryegrass, Italian
[18] = pre-emergence, Preemergence, scale 0 to 100 (0 no effect, 100 complete control), read-out: Plant response rating, Ryegrass, Italian
[19] = post-emergence, Postemergence, scale 0 to 100 (0 no effect, 100 complete control), read-out: Galium plant response rating
[20] = post-emergence, Postemergence, scale 0 to 100, 0 no effect, 100 complete control, read-out: Plant response rating, Galium
[21] = pre-emergence, Preemergence, scale 0 to 100 (0 no effect, 100 complete control), read-out: Plant response rating, Galium
[22] = post-emergence, Postemergence, scale 0 to 100 (0 no effect, 100 complete control), read-out: Lambsquarters plant response rating
[23] = post-emergence, Postemergence, scale 0 to 100, 0 no effect, 100 complete control, read-out: Plant response rating, Lambsquarters
[24] = pre-emergence, Preemergence, scale 0 to 100 (0 no effect, 100 complete control), read-out: Plant response rating, Lambsquarters

SMILES: FC(F)c1cc(-c2ccccc2Oc2ncc(Cl)cn2)on1 [Compound 53, 5-chloro-2-[2-[3-(difluoromethyl)-5-isoxazolyl]phenoxy]pyrimidine]
- pest or weed control at 125 g/ha [1, 11]: 100%
- pest or weed control at 500 g/ha [1, 12]: 100%
- pest or weed control at 125 g/ha [1, 13]: 90%
- pest or weed control at 500 g/ha [1, 13]: 100%
- Corn plant response rating (crop injury, 0 = no effect, 100 = complete kill) at 125 g/ha (corn (Zea mays) [2]; [14]): 10%
- Corn plant response rating (crop injury, 0 = no effect, 100 = complete kill) at 500 g/ha (corn (Zea mays) [2]; [15]): 70%
- pest or weed control at 125 g/ha [3, 11]: 100%
- pest or weed control at 500 g/ha [3, 12]: 100%
- pest or weed control at 125 g/ha [3, 13]: 90%
- pest or weed control at 500 g/ha [3, 13]: 100%
- pest or weed control at 125 g/ha [4, 11]: 100%
- pest or weed control at 500 g/ha [4, 12]: 100%
- pest or weed control at 125 g/ha [4, 13]: 100%
- pest or weed control at 500 g/ha [4, 13]: 100%
- plant injury at 125 g/ha [5, 14]: 40%
- plant injury at 500 g/ha [5, 15]: 80%
- pest or weed control at 16 g/ha [6, 16]: 0%
- pest or weed control at 31 g/ha [6, 16]: 5%
- pest or weed control at 62 g/ha [6, 17]: 5%
- pest or weed control at 125 g/ha [6, 17]: 5%
- pest or weed control at 125 g/ha ([6]; pre-emergence, Preemergence, read-out: Plant response rating (scale 0 to 100), Ryegrass, Italian): 60%
- pest or weed control at 16 g/ha [6, 18]: 0%
- pest or weed control at 31 g/ha [6, 18]: 10%
- pest or weed control at 62 g/ha [6, 18]: 15%
- plant injury at 16 g/ha (corn (Zea mays) [7]; post-emergence, Postemergence, 16 g ai/ha, scale 0 to 100 (0 no effect, 100 complete control), read-out: Corn plant response rating): 0%
- plant injury at 31 g/ha (corn (Zea mays) [7]; post-emergence, Postemergence, 31 g ai/ha, scale 0 to 100 (0 no effect, 100 complete control), read-out: Corn plant response rating): 0%
- Corn plant response rating (crop injury, 0 = no effect, 100 = complete kill) at 62 g/ha (corn (Zea mays) [7]; post-emergence, Postemergence, scale 0 to 100, 0 no effect, 100 complete control): 0%
- Corn plant response rating (crop injury, 0 = no effect, 100 = complete kill) at 125 g/ha (corn (Zea mays) [7]; post-emergence, Postemergence, 125 g ai/ha, scale 0 to 100, 0 no effect, 100 complete control): 0%
- plant injury at 125 g/ha (corn (Zea mays) [7]; pre-emergence, Preemergence, 125 g ai/ha, read-out: Plant response rating (scale 0 to 100), Corn): 5%
- Corn plant response rating (crop injury, 0 = no effect, 100 = complete kill) at 16 g/ha (corn (Zea mays) [7]; pre-emergence, Preemergence, 16 g ai/ha, scale 0 to 100 (0 no effect, 100 complete control)): 5%
- Corn plant response rating (crop injury, 0 = no effect, 100 = complete kill) at 31 g/ha (corn (Zea mays) [7]; pre-emergence, Preemergence, 31 g ai/ha, scale 0 to 100 (0 no effect, 100 complete control)): 10%
- Corn plant response rating (crop injury, 0 = no effect, 100 = complete kill) at 62 g/ha (corn (Zea mays) [7]; pre-emergence, Preemergence, scale 0 to 100 (0 no effect, 100 complete control)): 100%
- pest or weed control at 16 g/ha [8, 19]: 60%
- pest or weed control at 31 g/ha [8, 19]: 85%
- pest or weed control at 62 g/ha [8, 20]: 95%
- pest or weed control at 125 g/ha [8, 20]: 90%
- pest or weed control at 125 g/ha ([8]; pre-emergence, Preemergence, read-out: Plant response rating (scale 0 to 100), Galium): 98%
- pest or weed control at 16 g/ha [8, 21]: 85%
- pest or weed control at 31 g/ha [8, 21]: 95%
- pest or weed control at 62 g/ha [8, 21]: 100%
- pest or weed control at 16 g/ha [9, 22]: 70%
- pest or weed control at 31 g/ha [9, 22]: 80%
- pest or weed control at 62 g/ha [9, 23]: 100%
- pest or weed control at 125 g/ha [9, 23]: 100%
- pest or weed control at 125 g/ha ([9]; pre-emergence, Preemergence, read-out: Plant response rating (scale 0 to 100), Lambsquarters): 100%
- pest or weed control at 16 g/ha [9, 24]: 100%
- pest or weed control at 31 g/ha [9, 24]: 100%
- pest or weed control at 62 g/ha [9, 24]: 100%
- pest or weed control at 16 g/ha ([10]; 16 g ai/ha): 10%
- pest or weed control at 31 g/ha ([10]; 31 g ai/ha): 20%
